Data on one compound can be found in US20070078174A1 (priority 2005, published 2007).

Data set [1] can be described thus: clinical. As to conditions: human, plasma, other: sublingual and oral. The protocol:
Two groups were randomized and there was a one week washout period between administrations. The volunteers were in the fasted state when the drugs were administered. […] The oral formulation was administered with a glass of water. […] The samples were blinded from the analysts. […]

A short description of data set [2]: clinical. To be noted: male, human, plasma.
Protocol: The study was a randomized open label study with a four period comparative crossover study. […] The blood samples were taken at “0” hour (pre-dosing), 10 min, 20 min, 40 min, 1.0.
The study contained twelve (12) male subjects aged 18-55 years. […] However the available pharmacokinetic data from all twelve (12) subjects was included in the statistical analysis, as required by the study protocol.
The study administered the single dosages in four different forms.
For data set [3] the following is noted: cited from earlier work.

Where a name gives a salt, the structure may show the parent alone.

As usually defined, the half-life is the time needed for the level to fall by half in the phase considered. Low values mean fast loss, high ones slow loss. With `Clc1ccc2nsnc2c1NC1=NCCN1` [tizanidine, Tizanidine hydrochloride], the half-life in “clinical [1]” and in “clinical [2]” was 1.5 to 1.7 h throughout. Besides, the absolute bioavailability result in data set [3] (administered orally, extensive hepatic first pass metabolism) was “about 40%”. Besides, the bioavailability in data set [3] (lowered by first-pass hepatic metabolism) is recorded as 22-40%. In addition, in data set [3] (reported), the terminal half life is 2.5 h.
